Measurements from patent US20250032486A1, “COMBINATION OF 5-AMINO-2,3-DIHYDRO-1,4-PHTALAZINEDIONE AND A 6'-METHOXYCINCHONAN-9-OL FOR USE IN THE TREATMENT OF CORONAVIRAL INFECTIONS” (METROPHARM AG, priority 2021, published 2025).
Structures can show the parent of a compound that is named as a salt. Where two headings read alike, the source gives them in different places.

Columns and labels:
SARS-CoV-2 [1] = settings: from WO 2021/249667 and WO 2021/219244; cited from earlier work
SARS-CoV-2 [2] = format: cell-based
3-nitrotyrosine = settings: ex vivo lung, cigarette smoke; cited from earlier work

C=C[C@H]1CN2CC[C@H]1C[C@@H]2[C@@H](O)c1ccnc2ccc(OC)cc12 [quinidine, (+)-(9S)-6′-methoxycinchonan-9-ol]
inhibition of the replication of SARS-CoV-2 in vitro (SARS-CoV-2 [1]): Such an effect was also described

C=C[C@H]1CN2CC[C@H]1C[C@H]2[C@H](O)c1ccnc2ccc(OC)cc12 [quinine, (−)-(8a,9R)-6′-methoxycinchonan-9-ol]
inhibition of the replication of SARS-CoV-2 in vitro (SARS-CoV-2 [1]): Such an effect was also described

C=C[C@H]1C[N@@]2CC[C@H]1C[C@@H]2[C@@H](O)c1ccnc2ccc(OC)cc12 [quinidine sulfate]
amount of SARS-CoV-2 RNA copies (qRT-PCR-amplified RdRp, in relation to untreated cells) (SARS-CoV-2 [2]; Example 3, Calu-3 cells, 3 days, luminol sodium salt 500/250/125 μM, quinidine sulfate 10/1/0.1 μM, alone and combined, n=2): dose-dependent reduction

C=C[C@H]1C[N@@]2CC[C@H]1C[C@H]2[C@H](O)c1ccnc2ccc(OC)cc12 [quinine sulfate]
amount of SARS-CoV-2 RNA copies (qRT-PCR-amplified RdRp, in relation to untreated cells) (SARS-CoV-2 [2]; Example 1, Calu-3 cells, 3 days, luminol sodium salt 500/250/125 μM, quinine sulfate 10/1/0.1 μM, alone and combined, n=3): dose-dependent reduction

Nc1cccc2c(=O)[nH][nH]c(=O)c12.[Na] [5-amino-2,3-dihydro-1,4-phthalazinedione sodium salt]
amount of SARS-CoV-2 RNA copies (qRT-PCR-amplified RdRp, in relation to untreated cells) (SARS-CoV-2 [2]): dose-dependent reduction | inhibition of the replication of SARS-CoV-2 in vitro (SARS-CoV-2 [1]): dose-dependently inhibit | reduction of 3-nitrotyrosine (3-nitrotyrosine): nearly complete reduction
